Measured values reported in PMC6979384, “Characterization of the plant homeodomain (PHD) reader family for their histone tail interactions” (Epigenetics & Chromatin, 2020).

Assays:
Assay in all cases: Histone peptide microarray
Format in all cases: binding, human
AIRE (PP) = settings: GST-tagged AIRE (PP); sheet Array Heatmap; each array performed twice, total n = 4
Description: (§1) To more comprehensively define the histone interactions of the 31 PHD readers identified from the domain microarray analyses, we probed each on an alternate microarray platform containing a library of 293 synthetic histone peptides with single or combinatorial PTMs (Additional file 2: Figure S4 and Additional file 3: Table S2).
(§2) The 31 GST-tagged PHD readers identified in the PHD finger domain array were expressed and purified as previously. Histone peptide arrays and peptide pulldown assays were conducted as recently described (specifically, the optimized protocol from Petell et al. for the former).
(§3) Supplementary file 13072_2020_328_MOESM3_ESM.xlsx: Additional file 3: Table S2. […] Excel Tab Peptide List is a compiled list of the entire 293 histone peptide library with amino acid sequence ranges. […] Each number corresponds to the peptide number designated in Peptide List. Excel Tab Average Signals is a compiled set of binding data: chromatin reader at 0.5 μM vs. entire 293 peptide library. Data is presented as the average and standard deviation of 4 replicates. The average signals are colored to indicate signal intensity with green being strong and white being weak/low. […] Key: red= stronger relative binding; blue = weaker relative binding. Excel Tab Array info summary is a table summarizing the domains, sequence coverage, array signal range, and noise for each of the GST-tagged readers assayed on the peptide microarrays.

BAZ2B = settings: GST-tagged BAZ2B; sheet Array Heatmap; each array performed twice, total n = 4
Description: as §1, §2, §3

BPTF (PB) = settings: GST-tagged BPTF (PB = PHD + Bromodomain); sheet Array Heatmap; each array performed twice, total n = 4
Description: as §1, §2, §3

CHD4 (PPCC) = settings: GST-tagged CHD4 (PPCC = Dual PHD + Dual Chromodomain); sheet Array Heatmap; each array performed twice, total n = 4
Description: as §1, §2, §3

CHD5 (PCC) = settings: GST-tagged CHD5 (PCC = PHD + Dual Chromodomain); sheet Array Heatmap; each array performed twice, total n = 4
Description: as §1, §2, §3

CHD5 (PPCC) = settings: GST-tagged CHD5 (PPCC = Dual PHD + Dual Chromodomain); sheet Array Heatmap; each array performed twice, total n = 4
Description: as §1, §2, §3

DIDO1 = settings: GST-tagged DIDO1; sheet Array Heatmap; each array performed twice, total n = 4
Description: as §1, §2, §3

DPF2 (PPC2W2) = settings: GST-tagged DPF2 (PPC2W2 = Dual PHD + C2W2-type Zn-finger); sheet Array Heatmap; each array performed twice, total n = 4
Description: as §1, §2, §3

ING1 = settings: GST-tagged ING1; sheet Array Heatmap; each array performed twice, total n = 4
Description: as §1, §2, §3

ING2 = settings: GST-tagged ING2; sheet Array Heatmap; each array performed twice, total n = 4
Description: as §1, §2, §3

ING3 = settings: GST-tagged ING3; sheet Array Heatmap; each array performed twice, total n = 4
Description: as §1, §2, §3

ING4 = settings: GST-tagged ING4; sheet Array Heatmap; each array performed twice, total n = 4
Description: as §1, §2, §3

ING5 = settings: GST-tagged ING5; sheet Array Heatmap; each array performed twice, total n = 4
Description: as §1, §2, §3

KDM4C (TTP) = settings: GST-tagged KDM4C (TTP = Tandem Tudor domain + PHD); sheet Array Heatmap; each array performed twice, total n = 4
Description: as §1, §2, §3

KDM5A (1) = settings: GST-tagged KDM5A (1); sheet Array Heatmap; each array performed twice, total n = 4
Description: as §1, §2, §3

KDM5A (3) = settings: GST-tagged KDM5A (3); sheet Array Heatmap; each array performed twice, total n = 4
Description: as §1, §2, §3

KDM5B (1) = settings: GST-tagged KDM5B (1); sheet Array Heatmap; each array performed twice, total n = 4
Description: as §1, §2, §3

KDM5B (3) = settings: GST-tagged KDM5B (3); sheet Array Heatmap; each array performed twice, total n = 4
Description: as §1, §2, §3

KDM7A = settings: GST-tagged KDM7A; sheet Array Heatmap; each array performed twice, total n = 4
Description: as §1, §2, §3

MLL5 = settings: GST-tagged MLL5; sheet Array Heatmap; each array performed twice, total n = 4
Description: as §1, §2, §3

MORC3 (CW) = settings: GST-tagged MORC3 (CW = CW-type Zn-finger); sheet Array Heatmap; each array performed twice, total n = 4
Description: as §1, §2, §3

PHF13 = settings: GST-tagged PHF13; sheet Array Heatmap; each array performed twice, total n = 4
Description: as §1, §2, §3

PHF21A = settings: GST-tagged PHF21A; sheet Array Heatmap; each array performed twice, total n = 4
Description: as §1, §2, §3

PHF23 = settings: GST-tagged PHF23; sheet Array Heatmap; each array performed twice, total n = 4
Description: as §1, §2, §3

PHF2 = settings: GST-tagged PHF2; sheet Array Heatmap; each array performed twice, total n = 4
Description: as §1, §2, §3

PHF8 = settings: GST-tagged PHF8; sheet Array Heatmap; each array performed twice, total n = 4
Description: as §1, §2, §3

PHRF1 (RP) = settings: GST-tagged PHRF1 (RP); sheet Array Heatmap; each array performed twice, total n = 4
Description: as §1, §2, §3

RAG2 = settings: GST-tagged RAG2; sheet Array Heatmap; each array performed twice, total n = 4
Description: as §1, §2, §3

TAF3 = settings: GST-tagged TAF3; sheet Array Heatmap; each array performed twice, total n = 4
Description: as §1, §2, §3

TRIM66 (PB) = settings: GST-tagged TRIM66 (PB = PHD + Bromodomain); sheet Array Heatmap; each array performed twice, total n = 4
Description: as §1, §2, §3

SP140L = settings: GST-tagged SP140L; sheet Array Heatmap; each array performed twice, total n = 4
Description: as §1, §2, §3

Substance	Array Heatmap signal (histone peptide microarray) (AIRE (PP))	Array Heatmap signal (histone peptide microarray) (BAZ2B)	Array Heatmap signal (histone peptide microarray) (BPTF (PB))	Array Heatmap signal (histone peptide microarray) (CHD4 (PPCC))	Array Heatmap signal (histone peptide microarray) (CHD5 (PCC))	Array Heatmap signal (histone peptide microarray) (DIDO1)	Array Heatmap signal (histone peptide microarray) (DPF2 (PPC2W2))	Array Heatmap signal (histone peptide microarray) (ING1)	Array Heatmap signal (histone peptide microarray) (ING2)	Array Heatmap signal (histone peptide microarray) (ING3)	Array Heatmap signal (histone peptide microarray) (ING4)	Array Heatmap signal (histone peptide microarray) (ING5)	Array Heatmap signal (histone peptide microarray) (KDM4C (TTP))	Array Heatmap signal (histone peptide microarray) (KDM5A (1))	Array Heatmap signal (histone peptide microarray) (KDM5A (3))	Array Heatmap signal (histone peptide microarray) (KDM5B (1))	Array Heatmap signal (histone peptide microarray) (KDM5B (3))	Array Heatmap signal (histone peptide microarray) (KDM7A)	Array Heatmap signal (histone peptide microarray) (MLL5)	Array Heatmap signal (histone peptide microarray) (MORC3 (CW))	further results
H3K4me1 + K9ac + K14ac + K18ac: H3 1-20	0.4902	0.6125	0.3783	0.5742	0.872	0.6756	0.8362	0.5616	0.6379	0.5358	0.4842	0.3909	0.5283	0.5061	0.582	0.6974	0.5937	0.3735	0.5474	0.6558	Array Heatmap signal (histone peptide microarray) (CHD5 (PPCC)): 0.5902; Array Heatmap signal (histone peptide microarray) (PHF13): 0.6456; Array Heatmap signal (histone peptide microarray) (PHF21A): 0.4842; Array Heatmap signal (histone peptide microarray) (PHF23): 0.5995; Array Heatmap signal (histone peptide microarray) (PHF2): 0.5275; Array Heatmap signal (histone peptide microarray) (PHF8): 0.4393; Array Heatmap signal (histone peptide microarray) (PHRF1 (RP)): 0.6901; Array Heatmap signal (histone peptide microarray) (RAG2): 0.2881; Array Heatmap signal (histone peptide microarray) (TAF3): 0.2961; Array Heatmap signal (histone peptide microarray) (TRIM66 (PB)): 0.6139
H3K4me3 + S10p: H3 1-20	0.4865	0.4888	0.4763	0.5979	0.823	0.8088	0.6728	0.7399	0.7902	0.5974	0.5113	0.452	0.6416	0.4961	0.9343	0.7367	0.6326	0.6944	0.8699	0.8974	Array Heatmap signal (histone peptide microarray) (PHF13): 0.6968; Array Heatmap signal (histone peptide microarray) (PHF21A): 0.4924; Array Heatmap signal (histone peptide microarray) (PHF23): 0.7051; Array Heatmap signal (histone peptide microarray) (PHF2): 0.6926; Array Heatmap signal (histone peptide microarray) (PHF8): 0.7298; Array Heatmap signal (histone peptide microarray) (PHRF1 (RP)): 0.4961; Array Heatmap signal (histone peptide microarray) (RAG2): 0.5128; Array Heatmap signal (histone peptide microarray) (SP140L): 0.3516; Array Heatmap signal (histone peptide microarray) (TAF3): 0.4497; Array Heatmap signal (histone peptide microarray) (TRIM66 (PB)): 0.6387
